Results as given in ChEMBL document CHEMBL1201862, “PubChem BioAssay data set” (2004).
Calls of active or inactive are those of the source.

Key:
[1] = molecular target: Intestinal-type alkaline phosphatase (Homo sapiens, UniProt P09923); test: activation of human intestinal alkaline phosphatase – biochemical, dose response (AID 488873); assay type: functional
[2] = molecular target: T1, Sentrin-specific protease 8 (Homo sapiens, UniProt Q96LD8); test: inhibition of human SENP8 cleavage activity – biochemical, luminescence, SAR follow-up (AID 504501); assay type: functional
T1 sequence (Q96LD8 whole entry): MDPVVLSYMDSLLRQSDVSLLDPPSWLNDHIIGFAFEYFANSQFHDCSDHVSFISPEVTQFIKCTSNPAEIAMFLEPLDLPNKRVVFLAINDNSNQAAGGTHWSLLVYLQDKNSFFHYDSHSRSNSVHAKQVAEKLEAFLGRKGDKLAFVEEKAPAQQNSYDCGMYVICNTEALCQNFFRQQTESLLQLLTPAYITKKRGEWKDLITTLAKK

[3] = molecular target: T2, Caspase-3 (Homo sapiens, UniProt P42574); test: SAR Analysis of small molecule inhibitors of Sentrin-specific proteases (SENPs) using a Caspase-3 Selectivity assay. [Related pubchem assays (depositor defined):AID2540, AID2599, AID434973, AID489001]; assay type: functional
T2 sequence (P42574 whole entry): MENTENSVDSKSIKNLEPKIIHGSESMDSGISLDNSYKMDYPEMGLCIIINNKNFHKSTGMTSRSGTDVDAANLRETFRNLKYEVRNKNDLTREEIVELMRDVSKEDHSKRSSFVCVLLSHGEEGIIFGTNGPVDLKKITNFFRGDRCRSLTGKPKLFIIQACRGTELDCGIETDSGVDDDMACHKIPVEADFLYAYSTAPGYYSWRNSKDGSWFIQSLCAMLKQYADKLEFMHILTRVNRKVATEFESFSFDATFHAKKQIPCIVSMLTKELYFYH

[4] = DRD fibroblast viability loss – cell-based, non-viral oncogenic, luminescence, dose response (AID 1934); assay type: functional; conditions: Homo sapiens
[5] = molecular target: T3, RNA-binding protein pos-1 (Caenorhabditis elegans, UniProt G5EF15); test: disruptors of C. elegans POS-1 RNA interaction – biochemical, fluorescence polarization, dose response (AID 1964);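 note: purified POS-1 fused to maltose binding protein made in E. coli; potency of compounds blocking POS-1 binding to fluorescent RNA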
T3 sequence (G5EF15 whole entry): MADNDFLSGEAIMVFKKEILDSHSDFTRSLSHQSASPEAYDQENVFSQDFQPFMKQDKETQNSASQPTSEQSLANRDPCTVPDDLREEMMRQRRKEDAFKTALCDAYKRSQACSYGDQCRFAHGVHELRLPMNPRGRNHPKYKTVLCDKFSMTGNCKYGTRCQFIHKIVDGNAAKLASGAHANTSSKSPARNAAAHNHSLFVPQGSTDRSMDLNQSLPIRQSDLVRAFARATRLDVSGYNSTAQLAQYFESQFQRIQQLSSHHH

[6] = SNU-C1 cell viability reduction, dose response, CellTiter-Glo luminescence (AID 1117323); assay type: functional, cell-based
[7] = viability loss in HeLa cells – cytotoxicity control for MgcRacGAP inhibitor project, dose response (AID 624300); assay type: functional
[8] = system: BJ; test: BJ-TERT-LT-ST fibroblast viability loss – cell-based, RAS-independent, luminescence, dose response (AID 1935); assay type: functional; conditions: Homo sapiens;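 note: BJ fibroblasts immortalized with TERT plus LT and ST oncogenes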
[9] = alpha-synuclein stem-loop luciferase translation blockers – H4 neuroglioma cells, luminescence, confirmation (AID 1988); assay type: functional, cell-based
[10] = Reduced DLD-1 viability, concentration-response, CellTiter-Glo luminescence (AID 1117352); assay type: functional

Chain of Intestinal-type alkaline phosphatase (P09923 whole entry): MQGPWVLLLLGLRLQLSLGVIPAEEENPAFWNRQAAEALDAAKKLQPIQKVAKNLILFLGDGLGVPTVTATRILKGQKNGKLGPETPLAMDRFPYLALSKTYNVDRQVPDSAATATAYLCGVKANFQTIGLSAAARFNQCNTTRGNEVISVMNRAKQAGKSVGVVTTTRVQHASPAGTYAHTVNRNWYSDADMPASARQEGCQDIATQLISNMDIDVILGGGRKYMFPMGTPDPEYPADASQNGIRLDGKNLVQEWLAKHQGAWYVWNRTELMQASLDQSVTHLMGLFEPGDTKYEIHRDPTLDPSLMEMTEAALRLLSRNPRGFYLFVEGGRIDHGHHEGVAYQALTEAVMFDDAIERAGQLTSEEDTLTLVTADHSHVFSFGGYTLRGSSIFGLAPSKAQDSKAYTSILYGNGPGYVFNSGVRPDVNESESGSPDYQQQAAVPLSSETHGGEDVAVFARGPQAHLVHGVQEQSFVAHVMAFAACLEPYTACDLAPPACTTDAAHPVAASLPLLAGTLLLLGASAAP

EC50 [1]	IC50 [3]	Compound	IC50 [2]	EC50 [4]	EC50 [5]	IC50 [6]	CC50 [7]	EC50 [8]	EC50 [9]	IC50 [10]
> 100 µM (inactive)	> 99 µM (inactive)	Oc1ccc(/C=N/Nc2cc(N3CCCC3)nc(N3CCCC3)n2)cc1O	> 99 µM (inactive)							
		Cc1cc2nc3ccc(N(C)C)cc3[s+]c2cc1N [TOLONIUM CHLORIDE]		8.46 µM (inconclusive)	> 300 µM (not active)	5.56 µM (inactive)	25 µM (active)	9.19 µM (inconclusive)	7.13 µM (active)	9.38 µM (inactive)
